Data on 3 compounds can be found in patent US20190183908A1 (priority 2016, published 2019).

Assay [1] concerns LC3 in CD206+ macrophages. Also on record: species or system mice. The settings on record: mouse, in vivo.
Assay [2] deals with iNOS. Further details: species or system mice. As to conditions: mouse, in vivo.
In another assay the test system is Arginase1. Also on record: species or system mice. As to conditions: mouse, in vivo.
The next assay relates to M2:M1 macrophage ratio. Further details: species or system mice. As to conditions: mouse, in vivo.
Assay [3] has as its system TNF-α. Further details: species or system mice. The settings on record: mouse, in vivo.
Another assay relates to UV irradiated mice. Also on record: species or system C57BL/6 mice. As to conditions: mouse, in vivo.
The test system of the next assay is MMP9. Also on record: species or system mice. The settings on record: mouse, in vivo.
In the next assay the test system is CD206+ M2 macrophages. Also on record: species or system mice. As to conditions: mouse, in vivo.
Assay [4] relates to nitrogen mustard exposed mice. As to conditions: mouse, in vivo, ip; cited from earlier work.
The subject of assay [5] is LC3 in F4/80+ macrophages. Also on record: species or system mice. The settings on record: mouse, in vivo.
The subject of a further assay is UV induced apoptosis. As to conditions: mouse, in vivo.
The subject of assay [6] is UVR-irradiated skin of healthy adults. Further details: species or system human. The settings on record: in vivo.
Assay [7] relates to LC3 in CD163+ macrophages. Also on record: species or system human. The settings on record: in vivo, po.
The next assay concerns arginase-1. Also on record: species or system human. The settings on record: in vivo.
Assay [8] concerns TNF-α. Also on record: species or system human. As to conditions: in vivo, po.
Another assay concerns COX-2. Also on record: species or system human. The settings on record: in vivo, po.
Assay [9] relates to UVR-irradiated skin of healthy adults. It counts as in vivo, human. As to conditions: N=4.
For assay [10], the system named is TNF-α. Further details: species or system human. The settings on record: in vivo, po. The source holds these as a separate data set.
In assay [11] the test system is iNOS. Also on record: species or system human. The settings on record: in vivo, po.
For assay [12], the system named is Valchlor-exposed skin. Also on record: species or system human. The settings on record: in vivo.
For assay [13], the system named is Valchlor-exposed skin. It counts as in vivo, human.
The next assay concerns IL-6. Also on record: species or system human. As to conditions: in vivo, po.
For assay [14], the system named is UVR-irradiated skin of healthy adults. Also on record: species or system human. The settings on record: in vivo. This is another data set of the same source.
The subject of assay [15] is Valchlor-exposed skin. The settings on record: human, in vivo.

Entries after “also recorded” stand apart in the source; their conditions may differ.

With 25(OH)D, the “LC3+CD206+ cells in the dermis” value in [1] is on record as “significantly increased number of cells”. Moreover, the “Gene expression of iNOS (NOS2)” value in the assay on iNOS [2] is given as “significantly suppressed; also recorded: suppresses”. Moreover, the “arg1 staining in CD206+ cells” value in the assay on Arginase1 is “selectively stain for arg1 in CD206+ cells”. Further, in the assay with M2:M1 macrophage ratio, the “M2:M1 ratio” value is reported as “significantly altered” and the “M2:M1 ratio in presence or absence of VD” value is on record as “comparable”. Also, in the assay on TNF-α [3], the “Gene expression of TNF (TNF-α)” value is “sustained inhibition; also recorded: significantly suppressed; also recorded: suppresses”. Also, the “Skin inflammation, wound progression and histological architecture” value in the assay on UV irradiated mice (ip) was “prevented excessive cutaneous damage; also recorded: delayed skin inflammation, arrested skin wound progression and accelerated wound repair; also recorded: protects from UV induced necrosis, dyskeratosis and vacuolation of the basal layer”. Moreover, the “Gene expression of MMP9” value with MMP9 is “sustained inhibition; also recorded: significantly suppressed; also recorded: suppresses”. Moreover, the “M2 macrophages (CD206+) relative to M1” value in the assay with CD206+ M2 macrophages is listed as “more M2 cells co-localizing with LC3; also recorded: expands the M2 compared to M1”. In assay [4], the “Acute skin and systemic inflammation, tissue damage and mortality” value was “sufficient to prevent acute skin and systemic inflammation and rescue mice from extensive tissue damage and mortality”. Also, the “Elevation of macrophage-specific autophagy (LC3 punctae) compared to UV induced autophagy” value in assay [5] was 5 fold. In addition, the “UV mediated apoptotic cell death (TUNEL+ cells)” value in the assay with UV induced apoptosis is “significantly diminished”.
For the compound `C=C1CC[C@H](O)C/C1=C/C=C1\CCC[C@]2(C)[C@@H]([C@H](C)CCCC(C)C)CC[C@@H]12` [vitamin D3, cholecalciferol], in assay [6], the “Histologic structural damage (epidermal vesiculation, edema formation)” value is given as “improved”. For the same compound, in [7], the “LC3 co-localized with CD163+ macrophages in human skin” value is “upregulates cells that co-localize LC and CD163; also recorded: enhanced LC3”. Also, the “Arginase-1 protein expression localized to CD163+ macrophages” value in the assay on arginase-1 is “increased expression”. Besides, the “Skin expression of TNF-α compared to placebo” value in the assay with TNF-α [8] was “reduced expression; also recorded: lower”. Besides, in the assay on COX-2, the “Reduction in COX-2” value is given as 80%. The “Erythema Δa*24 hr, Mean (95% CI)” value in assay [9] is recorded as 2.0 (−2.1.6.1). For the same compound, in the assay with TNF-α [10], the “Reduction in TNF-α” value was 66%. The “Skin expression of iNOS compared to placebo” value with iNOS [11] is “reduced expression; also recorded: lower”. In addition, the “Skin thickness (arm 2 − arm 1) compared to placebo” value in the assay with Valchlor-exposed skin [12] is “trend in decreasing thickness; also recorded: reduction in skin thickness”. Besides, the “Reduction in skin vesication on histology” value in the assay with Valchlor-exposed skin [13] (in vivo, po) is recorded as 50%. Moreover, in the assay on Valchlor-exposed skin [13] (n=2), the Vesication by histology stood at 0%. In addition, in the assay on IL-6, the “Reduction in IL-6” value is 112%. Further, the “Skin thickness after irradiation with higher doses” value in assay [14] is listed as “trend for decreased skin thickness”. For the same compound, in the assay on Valchlor-exposed skin [15], the “Net skin symptom Irritation, Day 0” value was determined as 1.0; the “Net skin symptom Irritation, Day 1” value is recorded as 0.5; the “Net skin symptom Irritation, Day 2” value was found to be 1.1; the “Net skin symptom Irritation, Day 3” value is on record as 0.8. In addition, in the assay on Valchlor-exposed skin [15], the “Net skin symptom Irritation, Day 4” value is recorded as 0.5; the “Net skin symptom Irritation, Day 5” value is reported as 0.1; the “Net skin symptom Irritation, Day 6” value was −0.2; the “Net skin symptom Irritation, Slope” value was −0.1202 ± 0.05. In the assay with Valchlor-exposed skin [15], the “Net skin symptom Warmth, Day 0” value came out at 1.0; the “Net skin symptom Warmth, Day 1” value turned out to be 0.5; the “Net skin symptom Warmth, Day 2” value is on record as −0.2; the “Net skin symptom Warmth, Day 3” value came out at 0.0. Further, in the assay with Valchlor-exposed skin [15], the “Net skin symptom Warmth, Day 4” value was −1.0; the “Net skin symptom Warmth, Day 5” value is on record as 0.3; the “Net skin symptom Warmth, Day 6” value was −0.3; the “Net skin symptom Warmth, Slope” value is listed as −0.1296 + 0.083. Further, in the assay on Valchlor-exposed skin [15], the “Patient reported skin symptoms (warmth, irritation)” value was “demonstrable reduction; also recorded: decreased”; the “Skin pain, burning sensation, and itch” value is recorded as “no observable difference”.
As for `Cn1cnc(N)c2ncnc1-2` [3-MA, 3-methyladenine], the “LC3 expression in skin under inhibition of autophagy” value in [1] was “abolished LC3 expression”. For the same compound, the “arg1 expression in CD206+ cells under inhibition of autophagy” value in the assay with Arginase1 was “diminished arg1 expression”. Besides, the “TNF-α under blockade of autophagy” value in the assay with TNF-α [3] is given as “increasing”. In the assay with UV irradiated mice, the “UV-induced inflammation / VD mediated protection under blockade of autophagy” value is reported as “exacerbated UV-induced inflammation; also recorded: reversed VD mediated protection from inflammation”. The “MMP9 under blockade of autophagy” value in the assay on MMP9 was “increasing”. Besides, the “M2 macrophages / cellular profile under blockade of autophagy” value in the assay on CD206+ M2 macrophages is recorded as “depleted functional M2 macrophages; also recorded: recapitulates cellular profile observed with UV while quenching LC3 expression”. The “UV induced and VD induced autophagy” value in assay [5] is recorded as “inhibited”.
